Assay results as given in article PMC6934184, “Selective DNA-PKcs inhibition extends the therapeutic index of localized radiotherapy and chemotherapy” (The Journal of Clinical Investigation, 2019).

Target: T1, FGFR3 K650M (Homo sapiens, UniProt P22607, K650M)
T1 construct: purchased Thermo Fisher Scientific (Life Technologies) SelectScreen
Experiment: SelectScreen LanthaScreen
Type: binding
Details: read-out: % displacement
Summary of the method: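 SelectScreen broad panel; activity (Z'LYTE, Adapta) plus binding formats. ATP: Km app for CSF1R Z'LYTE; 10 for CAMK1 Adapta. Readout = % per kinase.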

T1 sequence (P22607 23-806 K650M): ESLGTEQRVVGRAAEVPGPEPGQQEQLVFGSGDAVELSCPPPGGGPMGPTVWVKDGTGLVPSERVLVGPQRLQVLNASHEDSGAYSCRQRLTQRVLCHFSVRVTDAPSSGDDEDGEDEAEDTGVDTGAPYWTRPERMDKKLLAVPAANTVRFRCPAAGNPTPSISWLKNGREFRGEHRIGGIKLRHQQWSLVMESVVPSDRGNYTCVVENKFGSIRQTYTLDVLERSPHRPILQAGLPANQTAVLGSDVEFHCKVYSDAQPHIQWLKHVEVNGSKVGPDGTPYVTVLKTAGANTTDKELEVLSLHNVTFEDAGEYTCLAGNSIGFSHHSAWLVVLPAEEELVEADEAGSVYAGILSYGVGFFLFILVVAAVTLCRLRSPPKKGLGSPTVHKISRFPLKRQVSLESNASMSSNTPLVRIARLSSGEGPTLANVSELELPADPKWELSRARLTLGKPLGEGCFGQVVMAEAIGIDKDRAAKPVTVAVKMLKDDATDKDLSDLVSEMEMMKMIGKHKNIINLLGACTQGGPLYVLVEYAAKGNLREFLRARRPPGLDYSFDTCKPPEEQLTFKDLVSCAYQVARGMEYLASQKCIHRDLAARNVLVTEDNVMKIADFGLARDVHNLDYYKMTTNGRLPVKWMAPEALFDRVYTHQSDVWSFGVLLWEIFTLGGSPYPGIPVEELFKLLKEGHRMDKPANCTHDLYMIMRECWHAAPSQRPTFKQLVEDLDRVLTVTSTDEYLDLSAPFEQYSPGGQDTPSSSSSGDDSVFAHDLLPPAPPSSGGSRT

CN(C(=O)CN1CCOCC1)c1ccc2sc3c(-c4cccc5c(=O)cc(N6CC7CCC(C6)O7)oc45)cccc3c2c1 [NU5455]
inhibition at 1 µM: 16.5%
